We go through three molecules from patent publication US10745454B2, “Method of synthesizing antagonist peptides for cell growth” (priority 2018, dated 2020).

In assay [1] the test system is PI3K/AKT and MAPK/ERK1/2 pathways. Kind of assay: Quantitative Western blot of PI3K/AKT and MAPK/ERK1/2 activation in 4T1 tumor extracts. Format: in vivo, murine. On the procedure:
In vivo Tumor Growth Regression-Animal studies are conducted according to relevant national and international guidelines of the Weatherall report and Institutional Animal Care and Use Committee (IACUC) of Tehran University of Medical Sciences. The tumors induced in the female BALB/c mice (5 weeks old) are purchased from the Laboratory Animal Center of Iran Pasteur Institute and maintained under 12 h dark and light cycle. The 4T1 tumor model mouse are sterilized and established from the breast cancer bearing BALB/c mice by a standard protocol. The 4T1 tumor model mouse are prepared by cutting the tumor into pieces of <0.3 cm3. The tumor pieces are subcutaneously transplanted into the left flank of the mouse under ketamine (100 mg/kg, i.p.) and xylazine (10 mg/kg, i.p.) anesthesia. The mouse carrying tumors with a tumor size reaching to 400 mm3 are randomized and divided into groups. Each group of tumor induced mice comprises 6 mouse. The first group is treated with vascular endothelial growth factor (VEGF). The second group is treated with phosphate buffer saline. The first group or treated groups receives daily 1, 2.5 and 10 mg/kg i.p. of VEGF-antagonistic peptides compared to PBS control group for two weeks. The tumor volume is measured every two days by a digital Vernier caliper (Mitutoyo, japan), using the following formula: v=a2×b×0.52 (where “a” is the shortest and “b” is the longest diameter).
The tumor tissues from control and peptide-treated (cultured cells or mice) are lysed with RIPA lysis buffer. […] Protein concentrations are assessed by Bradford assay. […]
The premium nitrocellulose western blotting membranes are washed with TBST and incubated with horseradish peroxidase-conjugated goat anti-mouse IgG secondary antibody. […] The quantitative analysis of protein expression to the reference protein, repeated at least three times, is performed using ImageJ. […]
Background: Immunoblotting shows a protein as a band on a membrane.

Assay [2] addresses T1, bFGFR-1 (receptor) (Homo sapiens, UniProt P11362).
T1 construct: with bFGFR-1 (receptor) in Human Umbilical Vein Endothelial Cells (HUVECs); endogenous in cells; host or cells: HUVEC (Human Umbilical Vein Endothelial Cells)
Nature of the assay: Competitive binding assay with bFGFR-1 in HUVECs (immunofluorescence). As to conditions: peptide 1000-2000 ng/ml overnight. On the procedure: Binding Assay—To assess competitive binding assay of bFGF antagonist, Human Umbilical Vein Endothelial Cells(HUVECs) are cultured in 96-well plates (5000 cells/well) with DMEM and 5% fetal bovine serum (FBS) incubated at 37° C. for overnight. After 24 h, the media in the 96-well plates is changed with DMEM without FBS and the cells are treated (except the control 96-well plates) with 1000-2000 ng/ml the peptides at 37° C. for overnight. The cells are fixed by 4% paraformaldehyde at room temperature for 5-10 min. After 5-10 minutes the cells are rinsed with phosphate buffer saline (PBS), permeabilized with PBS+0.3% Triton X-100. The […] with a mixture comprising 10% normal goat serum, bovine serum albumin (BSA) 1% PBST for 20 minutes in the room temperature. After 20 minutes the cells are subjected to anti-FGFR-1 (5000 ng/ml, Ab10646) with FITC-secondary (Ab6717) antibody and stained with propidium iodide (Sigma Aldrich, USA, P4170) (1 μg/ml) for nuclear staining. The cell-binding is analyzed by NIH Image J software.

For assay [3], the system named is HUVECs. Nature of the assay: Matrigel tube formation assay, bFGF antagonist. The format is cell-based, human. Conditions: peptide 2000 ng/ml.
For assay [4], the system named is ovarian cancer cell line SKOV3. Nature of the assay: bFGF-induced SKOV3 proliferation assay (MTT). Format: cell-based, human. Conditions: for bFGF-induced proliferation of SKOV3: hr-bFGF, peptide 25-1000 ng/ml, 5-6 days. The procedure: Cell Proliferation Assay—To analyze the ability of basic fibroblast growth factor (bFGF) antagonist peptide to inhibit the bFGF-induced cell proliferation, the ovarian cell line SKOV3 is utilized. The SKOV3 cell line is found to be dependent on bFGF for cellular proliferation. For cell culture, SKOV3 cells are maintained in DMEM supplemented with 5% FBS, 1% streptomycin, penicillin, […] glutamine and is mycoplasma free.
For estimating the anti-proliferative activity of bFGF, SKOV3 is plated at 1×10^4 cell per well in a 24 well dish in 1 ml DMEM, the cells are maintained in DMEM and treated with human recombinant bFGF (hr-bFGF) (0-100 ng/ml) alone and in combination with different concentration of the antagonistic peptide (25-1000 ng/ml) every other day for total 5-6 days. The experiment is terminated when cells are in confluence. The MTT assay is performed. The absorbance is determined at 540 nm. The results are expressed as the mean of triplicate experiments (+SD). One-way analysis of variance is used to determine significance.

The subject of assay [5] is 4T1 tumor. Kind of assay: Histopathological staining of angiogenesis markers CD31 and CD34 in 4T1 tumors of treated mice. Format: in vivo, BALB/c mice. As to conditions: 4T1 tumor tissue; i.p. daily, two weeks. The procedure: In vivo Tumor Growth Regression-Animal studies are conducted according to relevant national and international guidelines of the Weatherall report and Institutional Animal Care and Use Committee (IACUC) of Tehran University of Medical Sciences. The tumors induced in the female BALB/c mice (5 weeks old) are purchased from the Laboratory Animal Center of Iran Pasteur Institute and maintained under 12 h dark and light cycle. The 4T1 tumor model mouse are sterilized and established from the breast cancer bearing BALB/c mice by a standard protocol. The 4T1 tumor model mouse are prepared by cutting the tumor into pieces of <0.3 cm3. […] The tumor volume is measured every two days by a digital Vernier caliper (Mitutoyo, japan), using the following formula: v=a2×b×0.52 (where “a” is the shortest and “b” is the longest diameter).
Histopathological analyses—The excised tumor tissues are fixed in formalin (4%), embedded in paraffin, sectioned and stained against CD31, CD34, Ki-67, P53, Bcl-2 and TUNEL. […] To count microvessels of the murine breast cancer tissue, the 5 randomly selected vascularized areas are counted under scale bar 100 and 20 μm. The microvascular density (MVD) of the tumor is measured and evaluated by the standard protocol. The microvessels are manually counted on the images at scale bar of 20 μm. […]

Assay [6] relates to endothelial cell. As to conditions: Alzheimer's disease context; cited from earlier work.
Assay [7] has as its system adipose tissue. Conditions: mice; cited from earlier work.
The mark [8] stands for this setting: 4T1 mammary carcinoma tumor tissues.
Setting [9] is: listed as bFGF antagonistic peptide.

T1 sequence (P11362 22-822): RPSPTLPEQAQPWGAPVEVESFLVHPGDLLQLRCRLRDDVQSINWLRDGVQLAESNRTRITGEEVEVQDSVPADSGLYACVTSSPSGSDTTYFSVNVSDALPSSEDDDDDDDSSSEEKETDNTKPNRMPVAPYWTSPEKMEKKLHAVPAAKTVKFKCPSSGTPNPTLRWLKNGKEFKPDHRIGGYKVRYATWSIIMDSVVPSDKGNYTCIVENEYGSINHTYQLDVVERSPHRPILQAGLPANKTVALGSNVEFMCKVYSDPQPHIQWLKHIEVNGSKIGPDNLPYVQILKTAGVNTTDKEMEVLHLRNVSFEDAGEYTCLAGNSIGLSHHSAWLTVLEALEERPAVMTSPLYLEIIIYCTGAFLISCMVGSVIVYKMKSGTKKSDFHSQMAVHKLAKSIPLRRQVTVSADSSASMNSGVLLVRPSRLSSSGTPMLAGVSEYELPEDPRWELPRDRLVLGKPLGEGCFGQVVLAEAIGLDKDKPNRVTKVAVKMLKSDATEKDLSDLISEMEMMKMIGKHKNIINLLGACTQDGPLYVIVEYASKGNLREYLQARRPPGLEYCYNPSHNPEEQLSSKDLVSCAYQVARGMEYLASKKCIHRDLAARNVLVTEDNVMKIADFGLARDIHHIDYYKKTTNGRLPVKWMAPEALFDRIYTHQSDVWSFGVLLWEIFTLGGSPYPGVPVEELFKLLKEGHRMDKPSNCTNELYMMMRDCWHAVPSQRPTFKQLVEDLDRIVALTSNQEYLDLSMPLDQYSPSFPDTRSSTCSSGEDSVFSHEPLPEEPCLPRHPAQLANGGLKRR

For the molecule “2HN-Leu119-Lys120-Arg121-Thr122-Gly123-Gln124-Tyr125-Lys126-Leu127-COOH (H-LKRTGQYKL-OH; listed as Homo sapiens) [Seq. ID No. 5, antagonist of bFGF, residues 119-127 of bFGF]”, the AKT phosphorylation entry in assay [1] (setting [8]) is reported as “able to block”. In addition, in assay [1] (setting [8]), the ERK1/2 phosphorylation result is “able to block”. For the same molecule, in assay [1] (dosages 1 and 10 mg/kg), the “difference in p-AKT or p-ERK inhibition levels between dosages” value was “no significant difference”. For the same molecule, the “binding to bFGFR-1” value in assay [2] was “recognizes bFGFR”; in assay [2] (setting [9]), “recognizes and binds”. Moreover, the “anti-angiogenic activity, Matrigel assay” value in assay [3] is on record as “inhibits the angiogenesis process”. Besides, the “bFGF-induced proliferation of SKOV3” value in assay [4] is “suppressing bFGF-induced proliferation”; in assay [4] (listed as bFGF antagonist peptide) it was “inhibits the bFGF-induced proliferation of ovarian cancer cell line SKOV3 in a dose-dependent manner”; in assay [4] (setting [9]), “inhibit the proliferation”. In addition, the “SKOV3 cell proliferation at 400 ng/ml peptide” value in assay [4] (peptide 400 ng/ml) is listed as “reduced”. Moreover, the “anti-angiogenic effect, staining of angiogenesis marker CD31” value in assay [5] was “inhibits the angiogenesis”. For the same molecule, in assay [5], the “anti-angiogenic effect, staining of angiogenesis marker CD34” value is listed as “inhibits the angiogenesis”.

In the case of `CN(C)c1ccc(/C=C2\C(=O)Nc3ccccc32)cc1` [SU 4312], the vessel formation result in assay [6] is given as “could be blocked”.

As for `CO[C@@H]1[C@H](OC(=O)NC(=O)CCl)CC[C@]2(CO2)[C@H]1[C@@]1(C)O[C@@H]1CC=C(C)C` [TNP-470], in assay [7], the “diet-induced and genetic obesity” value is “able to prevent”; the “vascularity in the adipose tissue” value is given as “reduced”.
